Assay results as given in patent publication US7977375B2, “Antibiotic and method of production thereof” (Helmholtz-Zentrum Für Infektionsforschung GmbH, priority 2004, dated 2011).
In brackets after ≈: the same amount, converted by molar mass.

Assays:
E. faecalis VRAS E305 [1] = test: MIC / MBC in liquid culture; type: cell-based, Enterococcus faecalis; settings: E. faecalis VRAS E305
S. aureus MRSA 3 = test: electron microscopy of cell division (FIG. 2); type: cell-based, Staphylococcus aureus; settings: 16 μg/ml, 4 hours shake culture
Description: FIGS. 2 a), b) and c) are electron microscope photographs of S. aureus MRSA 3 after 4 hours growth without antibiotic and d), e) and f) in the presence of 16 μg/ml 7-O-malonyl macrolactin A;
It is thought that 7-O-malonyl macrolactin A inhibits the division of bacterial cells, which interrupts the proliferation thereof.
7-O-malonyl macrolactin A influences cell division in MRSA 3, which is evident from the altered division planes. […] The large black arrowheads (FIGS. 2e) and f)) indicate the division planes, while the small black arrowheads indicate an asymmetrical initiation of cell division.

E. faecalis VRAS E305 [2] = test: agar diffusion method, inhibition zone; type: cell-based, Enterococcus faecalis; settings: E. faecalis VRAS E305, MH agar, 18 hours at 37° C., per disk 10 μl crude extract, 50 μg macrolactin, 78 μg erythromycin, 30 μg vancomycin, 10 μg ampicillin
Description: (§1) The agar diffusion method employing Mueller-Hinton (MH) agar (Difco Laboratories) was used to determine effectiveness against bacteria and yeasts. Sterile paper disks (Schleicher & Schüell, Germany) were seeded with 10 μl crude extract or with a solution of purified macrolactin (final compound concentration on the disk 50 μg) and then placed on the surface of MH-agar plates that had been seeded beforehand with a suspension of overnight culture of the test microorganisms at a concentration of 10^5 cells/ml.

E. faecalis ATCC 29212 = test: agar diffusion method, inhibition zone; type: cell-based, Enterococcus faecalis; settings: Enterococcus faecalis, ATCC29212; E. faecalis ATCC 29212; MH agar, 18 hours at 37° C.; per disk 10 μl crude extract, 50 μg macrolactin, 78 μg erythromycin, 30 μg vancomycin, 10 μg ampicillin
Description: as §1

MRSA 2 = test: MIC / MBC in liquid culture; type: cell-based, Staphylococcus aureus; settings: MRSA 2
[3] = test system: Candida parapsilosis DSM5784; test: MIC / MBC in liquid culture; type: cell-based; settings: Lodderomyces parapsilosis, read-out: MIC (minimal inhibitory concentration)

CC1CCC/C=C/C=C/C(O)CC(O)C/C=C\C=C\C(OC(=O)CC(=O)O)C/C=C/C=C\C(=O)O1 (centres unmarked) [7-O-malonyl macrolactin A]
MIC (minimal inhibitory concentration) (E. faecalis VRAS E305 [1]): >128 µg/mL
MBC (E. faecalis VRAS E305 [1]; Enterococcus faecalis, VRASE305, read-out: MBC (minimal bacteriostatic or fungistatic concentration)): 0.06 µg/mL (≈ 0.123 µM)
MIC (E. faecalis VRAS E305 [1]; Enterococcus faecalis, VRASE305, read-out: MIC (minimal inhibitory concentration)): > 128 µg/mL
effect on cell division, electron microscope (S. aureus MRSA 3): disrupted cell division
Inhibition zone (E. faecalis VRAS E305 [2]): produced an inhibition zone
zone of inhibition at 50 µg/disc (E. faecalis VRAS E305 [2]; Enterococcus faecalis, VRASE305): 15 mm
zone of inhibition at 50 µg/disc (E. faecalis ATCC 29212): 25 mm
MIC (minimal inhibitory concentration) (MRSA 2): >128 µg/mL
MBC (MRSA 2; Staphylococcus aureus, pronounced inhibition of growth, read-out: MBC (minimal bacteriostatic or fungistatic concentration)): 4 µg/mL (≈ 8.19 µM)
MIC (MRSA 2; Staphylococcus aureus, read-out: MIC (minimal inhibitory concentration)): > 128 µg/mL
MIC [3]: 128 µg/mL (≈ 262 µM)
